Results: US20240252454A1, “COMPOSITION COMPRISING AN INHIBITOR OF MITOCHONDRIAL TRANSCRIPTION” (LEAD DISCOVERY CENTER GMBH, priority 2021, published 2024)

How the values were obtained:
Assay in all cases: SRB assay, IMT combined with inhibitor
Format in all cases: cell-based
A375 = A375 (skin); concentration series of the labelled inhibitor + fixed concentration of IMT (3S)-1-[(2R)-2-[4-(2-chloro-4-fluoro-phenyl)-2-oxo-chromen-7-yl]oxypropanoyl]piperidine-3-carboxylic acid (Table 3: 40 nM, 120 h); negative=synergistic, positive=antagonistic
Method in brief: (§1)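 Combination growth assay: MAPK signalling SOC titration on a background of 40 nM chromenone piperidine-3-carboxylic acid, 120 h, physiological 5 mM glucose, SRB read-out relative to untreated cells.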

A673 = A673 (muscle); concentration series of the labelled inhibitor + fixed concentration of IMT (3S)-1-[(2R)-2-[4-(2-chloro-4-fluoro-phenyl)-2-oxo-chromen-7-yl]oxypropanoyl]piperidine-3-carboxylic acid (Table 3: 40 nM, 120 h); negative=synergistic, positive=antagonistic
Method in brief: as §1

BXPC3 = BXPC3 (pancreas); concentration series of the labelled inhibitor + fixed concentration of IMT (3S)-1-[(2R)-2-[4-(2-chloro-4-fluoro-phenyl)-2-oxo-chromen-7-yl]oxypropanoyl]piperidine-3-carboxylic acid (Table 3: 40 nM, 120 h); negative=synergistic, positive=antagonistic
Method in brief: as §1

CALU6 = CALU6 (lung); concentration series of the labelled inhibitor + fixed concentration of IMT (3S)-1-[(2R)-2-[4-(2-chloro-4-fluoro-phenyl)-2-oxo-chromen-7-yl]oxypropanoyl]piperidine-3-carboxylic acid (Table 3: 40 nM, 120 h); negative=synergistic, positive=antagonistic
Method in brief: as §1

COLO205 = COLO205 (colon); concentration series of the labelled inhibitor + fixed concentration of IMT (3S)-1-[(2R)-2-[4-(2-chloro-4-fluoro-phenyl)-2-oxo-chromen-7-yl]oxypropanoyl]piperidine-3-carboxylic acid (Table 3: 40 nM, 120 h); negative=synergistic, positive=antagonistic
Method in brief: as §1

DU145 = DU145 (prostate); concentration series of the labelled inhibitor + fixed concentration of IMT (3S)-1-[(2R)-2-[4-(2-chloro-4-fluoro-phenyl)-2-oxo-chromen-7-yl]oxypropanoyl]piperidine-3-carboxylic acid (Table 3: 40 nM, 120 h); negative=synergistic, positive=antagonistic
Method in brief: as §1

GRANTA-519 = GRANTA-519 (hematological); concentration series of the labelled inhibitor + fixed concentration of IMT (3S)-1-[(2R)-2-[4-(2-chloro-4-fluoro-phenyl)-2-oxo-chromen-7-yl]oxypropanoyl]piperidine-3-carboxylic acid (Table 3: 40 nM, 120 h); negative=synergistic, positive=antagonistic
Method in brief: as §1

HCT116 = HCT116 (colon); concentration series of the labelled inhibitor + fixed concentration of IMT (3S)-1-[(2R)-2-[4-(2-chloro-4-fluoro-phenyl)-2-oxo-chromen-7-yl]oxypropanoyl]piperidine-3-carboxylic acid (Table 3: 40 nM, 120 h); negative=synergistic, positive=antagonistic
Method in brief: as §1

HCT15 = HCT15 (colon); concentration series of the labelled inhibitor + fixed concentration of IMT (3S)-1-[(2R)-2-[4-(2-chloro-4-fluoro-phenyl)-2-oxo-chromen-7-yl]oxypropanoyl]piperidine-3-carboxylic acid (Table 3: 40 nM, 120 h); negative=synergistic, positive=antagonistic
Method in brief: as §1

HELA = HELA (cervix); concentration series of the labelled inhibitor + fixed concentration of IMT (3S)-1-[(2R)-2-[4-(2-chloro-4-fluoro-phenyl)-2-oxo-chromen-7-yl]oxypropanoyl]piperidine-3-carboxylic acid (Table 3: 40 nM, 120 h); negative=synergistic, positive=antagonistic
Method in brief: as §1

HT1080 = HT1080 (connective tissue); concentration series of the labelled inhibitor + fixed concentration of IMT (3S)-1-[(2R)-2-[4-(2-chloro-4-fluoro-phenyl)-2-oxo-chromen-7-yl]oxypropanoyl]piperidine-3-carboxylic acid (Table 3: 40 nM, 120 h); negative=synergistic, positive=antagonistic
Method in brief: as §1

MHHES1 = MHHES1 (bone); concentration series of the labelled inhibitor + fixed concentration of IMT (3S)-1-[(2R)-2-[4-(2-chloro-4-fluoro-phenyl)-2-oxo-chromen-7-yl]oxypropanoyl]piperidine-3-carboxylic acid (Table 3: 40 nM, 120 h); negative=synergistic, positive=antagonistic
Method in brief: as §1

SKMEL5 = SKMEL5 (skin); concentration series of the labelled inhibitor + fixed concentration of IMT (3S)-1-[(2R)-2-[4-(2-chloro-4-fluoro-phenyl)-2-oxo-chromen-7-yl]oxypropanoyl]piperidine-3-carboxylic acid (Table 3: 40 nM, 120 h); negative=synergistic, positive=antagonistic
Method in brief: as §1

U87MG = U87MG (brain); concentration series of the labelled inhibitor + fixed concentration of IMT (3S)-1-[(2R)-2-[4-(2-chloro-4-fluoro-phenyl)-2-oxo-chromen-7-yl]oxypropanoyl]piperidine-3-carboxylic acid (Table 3: 40 nM, 120 h); negative=synergistic, positive=antagonistic
Method in brief: as §1

Row | Compound | difference between the calculated combinatorial index (BLISS) and the observed combinatorial effect (A375) | difference between the calculated combinatorial index (BLISS) and the observed combinatorial effect (A673) | difference between the calculated combinatorial index (BLISS) and the observed combinatorial effect (BXPC3) | difference between the calculated combinatorial index (BLISS) and the observed combinatorial effect (CALU6) | difference between the calculated combinatorial index (BLISS) and the observed combinatorial effect (COLO205) | difference between the calculated combinatorial index (BLISS) and the observed combinatorial effect (DU145) | difference between the calculated combinatorial index (BLISS) and the observed combinatorial effect (GRANTA-519) | difference between the calculated combinatorial index (BLISS) and the observed combinatorial effect (HCT116) | difference between the calculated combinatorial index (BLISS) and the observed combinatorial effect (HCT15) | difference between the calculated combinatorial index (BLISS) and the observed combinatorial effect (HELA) | difference between the calculated combinatorial index (BLISS) and the observed combinatorial effect (HT1080) | difference between the calculated combinatorial index (BLISS) and the observed combinatorial effect (MHHES1) | difference between the calculated combinatorial index (BLISS) and the observed combinatorial effect (SKMEL5) | difference between the calculated combinatorial index (BLISS) and the observed combinatorial effect (U87MG)
1 | O=C(c1ccc(F)c(F)c1Nc1ccc(I)cc1F)N1CC(O)([C@@H]2CCCCN2)C1 [Cobimetinib] | 0.0443 | 0.0185 | 0.0204 | 0.0286 | 0.0185 | 0.0164 | −0.0008 | −0.0279 | 0.0539 | −0.0068 | −0.0482 | −0.0055 | −0.0872 | 0.0347
2 | CC(C)Nc1cc(-c2c[nH]c(C(=O)N[C@H](CO)c3cccc(Cl)c3)c2)c(Cl)cn1 [Ulixertinib] | 0.0427 | 0.0876 | 0.0946 | 0.0100 | 0.0384 | 0.0554 | 0.0393 | −0.0066 | −0.0215 | −0.0117 | −0.0011 | 0.0992 | −0.0542 | 0.0859
3 | Cc1cc(C(=O)NOCCO)c(Nc2ccc(I)cc2F)n(C)c1=O [AZD8330, 2-((2-Fluoro-4-iodophenyl)amino)-N-(2-hydroxyethoxy)-1,5-dimethyl-6-oxo-1,6-dihydropyridine-3-carboxamide] | 0.0451 | −0.0047 | 0.0756 | −0.0116 | 0.0127 | 0.0201 | −0.0506 | −0.0196 | 0.1028 | 0.0000 | 0.0197 | 0.0682 | 0.0135 | 0.0579
4 | O=C(NOC[C@H](O)CO)c1ccc(F)c(F)c1Nc1ccc(I)cc1F [PD 0325901, (R)—N-(2,3-dihydroxypropoxy)-3,4-difluoro-2-((2-fluoro-4-iodophenyl)amino)benzamide] | 0.0418 | 0.0281 | 0.0495 | 0.0809 | 0.0261 | −0.0558 | 0.0420 | −0.0042 | 0.1249 | −0.2549 | 0.0433 | 0.0437 | 0.0095 | 0.0604
